Experimental data: PMC4459817, “Vasculotide reduces endothelial permeability and tumor cell extravasation in the absence of binding to or agonistic activation of Tie2” (EMBO Molecular Medicine, 2015)

Tested on: residual and metastatic LM2-4luc disease after resection
Experiment: orthotopic LM2-4luc xenografts with surgical resection of primary tumor (adjuvant setting)
Type: in vivo, human LM2-4luc cells in CB-17 SCID mice
Excerpt: A second orthotopic implantation experiment involved surgical resection of primary LM2-4^luc tumors (∽400 mm^3) at 17DPI (Fig6) to model post-operative metastases arising from minimal residual disease (MRD). MRD includes the regrowth of incompletely resected mammary tumors, as well as circulating or disseminated tumor cells released from primary tumors prior to or at the time of surgical resection. VT was initiated 6 days prior to surgery and maintained chronically, while adjuvant SU (1-week or 3-week 60 mg/kg/day) treatments were initiated 1 day post-surgery (Fig6A).
In vivo experiments were performed in strict accordance with protocols approved by the Sunnybrook Research Institute Animal Care Committee, accredited by the Canadian Council of Animal Care. All surgical, imaging, and euthanasia procedures were performed under inhaled isoflurane anesthesia. Experimental metastasis models involved injections of 10^6 tumor cells, suspended in 200 μl serum-free DMEM, into the mouse tail vein. LM2-4^luc implantations were performed on 6 to 8-week-old female CB-17 SCID mice (Charles River Canada). HT29^luc implantations were performed on 19- to 20-week-old male and 11- to 12-week-old female YFP-SCID mice (bred in-house). SN12^luc implantations were performed on 9-week-old male YFP-SCID mice. Spontaneous metastasis models involved orthotopic implantations of 2 × 10^6 LM2-4^luc cells/50 μl serum-free DMEM in the right inguinal mammary fat pads of 6-week-old female CB-17 SCID mice.
Sunitinib malate (SU), from Pfizer or LC Laboratories, and its vehicle were formulated as described before (Ebos et al, [2009]). SU was administered by oral gavage (PO), once daily, at a dose of 60 mg/kg mouse weight. Vasculotide (VT): VT synthesized at the Sunnybrook Research Institute (Toronto, ON, Canada) was used in experiments described in Fig2(A–D) and Supplementary Fig S5(A and B). VT synthesized by American Peptide (Sunnyvale, CA, USA) was used in experiments described in Fig5. VT synthesized by Bachem UK Ltd was used in experiments described in Figs1, 2(E–H), 3, 4, 6–9, Supplementary Figs S2, and S5(C and D). Lyophilized product was reconstituted in PBS to 500 μg/500 μl stock aliquots and stored at −80°C. As needed, stock aliquots were diluted with PBS to a 250 ng/50 μl working concentration and stored in 0.4–1 ml aliquots at −80°C. VT (at a standard dose of 250 ng/mouse) or its vehicle (PBS) was administered to mice by intraperitoneal (IP) injections every other day.
5. Bioluminescence imaging (BI) of tumor burden
For in vivo BI: Mice were injected intraperitoneally with 150mg/kg luciferin (Promega) 10 minutes prior to and anesthetized with isofluorane just before luminescent pseudocolor imaging (uniform settings: CCD camera locked at -105 °C, exposure=60s, f/1, subject size=1.5cm, bin=8, FOV=23.2cm, full image correction) using the IVIS 200 Imaging System (Caliper/PerkinElmer). Using the Living Image software (v2.50.1, Xenogen), weekly images were analyzed under uniform color range on grayscale photographic overlay. Total fluxes (photons/sec) were quantified within consistent regions of interest and statistically compared ideally at a timepoint before any deaths have occurred.
For ex vivo BI: Mice were sacrificed at 7 mins after luciferin injections, then organs of interest were dissected and individually placed within 24-well plates for imaging at 10 min post-luciferin injection.
6. Immunohistochemical (IHC) analysis of lung metastases […]

Compound	thoracic metastases benefit (10 days after discontinuation of 1-week SU, Fig6C)	abdominal tumor growth vs. thoracic metastatic dissemination (adjuvant SU, Fig6C, D)	tumor bioluminescence, VT combined with 1-wk SU (Fig6C and D)	survival advantage (VT monotherapy, Plog-rank = 0.42, Fig6A)	thoracic metastatic dissemination vs. abdominal tumor growth (thoracic P = 0.04, abdominal P > 0.05 for VT, Fig6C, D)
CCN(CC)CCNC(=O)c1c(C)[nH]c(/C=C2\C(=O)Nc3ccc(F)cc32)c1C [sunitinib, reference compound]	no benefit was observed with respect to thoracic metastases	more effective at inhibiting abdominal tumor growth (Fig6D) than thoracic metastatic dissemination			
CHHHRHSF [Vasculotide, 4-armed maleimide-functionalized polyethylene glycol (PEG) backbone to link together four cysteine-capped T7 peptides, that is, CHHHRHSF]			lowered tumor bioluminescence to a similar extent as 3-wk SU monotherapy	not statistically significant	more effective at inhibiting thoracic metastatic dissemination (Fig6C, P = 0.04) than abdominal tumor growth (Fig6D, P > 0.05)
